Measurements: US20260248834A1, “PHARMACEUTICAL COMPOSITION AND METHOD FOR TREATMENT OF HUMAN IMMUNODEFICIENCY VIRUS INFECTIONS” (Brii Biosciences, Inc., priority 2022, published 2026)

How the values were obtained:
[1] = Intracellular half-life of EFdA triphosphate in human; type: in vivo; details: cells (intracellular; cell type not given), read-out: intracellular half-life of EFdA triphosphate (EFdA-TP) (converted)
[2] = Phase I study: safety and tolerability (treatment-emergent adverse events); type: in vivo, human
Experimental: Following oral absorption, 1-A is rapidly converted to ISL, which is metabolized intracellularly to the active metabolite, ISL triphosphate (ISL-TP). The objectives of the study were to assess the safety, tolerability, and PK profiles of 1-A and ISL in plasma; and ISL diphosphate (ISL-DP) and ISL-TP in human PBMCs.
(§1) Methods. Healthy adult subjects were enrolled in five single ascending dose and two multiple ascending dose cohorts. 1-A was administered to single dose cohorts in amounts of 10 mg, 25 mg, 50 mg, 100 mg or 200 mg. 1-A was administered to multiple dose cohorts in amounts of 10 mg per week for 3 weeks or 25 mg per week for 3 weeks. 1-A was orally administered in the fasted state using an oral solution formulation. Safety-related assessments included physical examinations, ECGs, vital signs, AEs, and standard clinical laboratory tests.

[3] = Phase I study: pharmacokinetics of ISL-TP in PBMCs; type: in vivo, human; details: for ISL-TP in PBMCs AUClast / ISL-TP in PBMCs Cmax: 3 weekly oral doses of 25 mg 1-A, healthy adults, mean
Description: (§2) This example describes results from a Phase I, randomized, double-blind, placebo-controlled study for adenosine derivative having Formula 1-A (“1-A”), which is a prodrug of islatravir (ISL). Following oral absorption, 1-A is rapidly converted to ISL, which is metabolized intracellularly to the active metabolite, ISL triphosphate (ISL-TP). The objectives of the study were to assess the safety, tolerability, and PK profiles of 1-A and ISL in plasma; and ISL diphosphate (ISL-DP) and ISL-TP in human PBMCs.
as §1

[4] = Stability in Human Plasma (conversion to EFdA); type: in vitro ADME
Description: (§3) The adenosine derivative having the Formula 1-A was produced according to the process described in PCT publication WO2021021717, published on Feb. 4, 2021, herein incorporated by reference. [table]

[5] = Phase I study: pharmacokinetics of 1-A and islatravir in plasma; type: in vivo, human
Description: as §2, §1

[6] = Stability in Human Liver S9 (conversion to EFdA); type: in vitro ADME
Description: as §3

[7] = single or multiple oral doses of 1-A, 10 mg to 200 mg

C#C[C@]1(COP(=O)(O)OP(=O)(O)OP(=O)(O)O)O[C@@H](n2cnc3c(N)nc(F)nc32)C[C@@H]1O [EFdA-TP, 4′-ethynyl-2-fluoro-2′-deoxyadenosine triphosphate]
half-life [1]: ~108 h

C#C[C@]1(COC(=O)OCc2oc(=O)oc2C)O[C@@H](n2cnc3c(N)nc(F)nc32)C[C@@H]1O [Formula 1-A, ((2R,3S,5R)-5-(6-amino-2-fluoro-9H-purin-9-yl)-2-ethynyl-3-hydroxytetrahydro-furan-2-yl)methyl ((5-methyl-2-oxo-1,3-dioxol-4-yl)methyl) carbonate]
Number (%) of Subjects with Any Death ([2]; 10 mg QW × 3 oral (N = 3)): 0 | Number (%) of Subjects with Any TEAE ([2]; 10 mg QW × 3 oral (N = 3)): 2 (66.7%) | Number (%) of Subjects with Any TEAE Grade 1 ([2]; 10 mg QW × 3 oral (N = 3)): 2 (66.7%) | Number (%) of Subjects with Any TEAE Grade 2, 3, 4, or 5 ([2]; 10 mg QW × 3 oral (N = 3)): 0 | Number (%) of Subjects with Any TEAE Leading to Premature Discontinuation of Study Drug ([2]; 10 mg QW × 3 oral (N = 3)): 0 | Number (%) of Subjects with Any TEAE Related to Study Drug ([2]; 10 mg QW × 3 oral (N = 3)): 2 (66.7%) | Number (%) of Subjects with Any TEAE Related to Study Drug Grade 1 ([2]; 10 mg QW × 3 oral (N = 3)): 2 (66.7%) | Number (%) of Subjects with Any TEAE Related to Study Drug Grade 2, 3, 4, or 5 ([2]; 10 mg QW × 3 oral (N = 3)): 0 | Number (%) of Subjects with Any Treatment-emergent Serious AE ([2]; 10 mg QW × 3 oral (N = 3)): 0 | Number (%) of Subjects with Any Death ([2]; 25 mg QW × 3 oral (N = 6)): 0 | Number (%) of Subjects with Any TEAE ([2]; 25 mg QW × 3 oral (N = 6)): 2 (33.3%) | Number (%) of Subjects with Any TEAE Grade 1 ([2]; 25 mg QW × 3 oral (N = 6)): 2 (33.3%) | Number (%) of Subjects with Any TEAE Grade 2, 3, 4, or 5 ([2]; 25 mg QW × 3 oral (N = 6)): 0 | Number (%) of Subjects with Any TEAE Leading to Premature Discontinuation of Study Drug ([2]; 25 mg QW × 3 oral (N = 6)): 0 | Number (%) of Subjects with Any TEAE Related to Study Drug ([2]; 25 mg QW × 3 oral (N = 6)): 2 (33.3%) | Number (%) of Subjects with Any TEAE Related to Study Drug Grade 1 ([2]; 25 mg QW × 3 oral (N = 6)): 2 (33.3%) | Number (%) of Subjects with Any TEAE Related to Study Drug Grade 2, 3, 4, or 5 ([2]; 25 mg QW × 3 oral (N = 6)): 0 | Number (%) of Subjects with Any Treatment-emergent Serious AE ([2]; 25 mg QW × 3 oral (N = 6)): 0 | tolerability ([2]; single doses up to 200 mg and repeat doses up to 25 mg, healthy adults): generally well tolerated | ISL-TP in PBMCs AUClast ([3]; Day 1): 617 h*pmol/10^6 cells | ISL-TP in PBMCs Cmax ([3]; Day 1): 5.70 pmol/10^6 cells | ISL-TP in PBMCs AUClast ([3]; Day 15): 2210 h*pmol/10^6 cells | ISL-TP in PBMCs Cmax ([3]; Day 15): 15.4 pmol/10^6 cells | ISL-TP accumulation in PBMCs ([3]; after 3 weekly doses of 25 mg 1-A): significant ISL-TP accumulations | intracellular formation of ISL-TP in PBMCs ([3]; oral 1-A, dose-dependent manner): Efficient intracellular formation | half-life ([4]; human plasma): < 0.833 h | conversion to the target drug ([4]; human plasma assay): converted to the target drug efficiently | Stability in Human Plasma Formation of EFdA at 60 min ([4]; human plasma, 60 min): Yes | PK profiles of ISL in plasma and ISL-TP in PBMC cells ([5]; after single and multiple oral administrations of 1-A): linear pharmacokinetics | systemic exposure to 1-A (plasma, LLOQ) ([5]; single or multiple oral administrations of 1-A up to 200 mg, healthy adults): < 1.0 ng/mL | EFdA accumulation in plasma [5, 7]: No meaningful EFdA accumulation | ISL plasma PK profiles [5, 7]: Dose-dependent | half-life ([6]; human liver S9): < 0.833 h | Stability in Human Liver S9 Formation of EFdA at 60 min ([6]; human liver S9, 60 min): Yes | conversion to the target drug ([6]; human liver S9 assay): converted to the target drug efficiently
